The structures appear in SMILES notation.

For the experiment, the system named is patient suffering from hyperhidrosis. In words: Oral sulpiride given to a patient suffering from hyperhidrosis. Format: in vivo, human. Conditions: 200 mg daily. The protocol: A dose of 200 mg Sulpiride was administered to a patient suffering from hyperhidrosis.

As for `CCN1CCCC1CNC(=O)c1cc(S(N)(=O)=O)ccc1OC` (stereo not drawn) [Sulpiride, N-[(1-ethylpyrrolidin-2-yl)methyl]-2-methoxy-5-sulfamoyl-benzamide], the “duration of reduction in sweating” value is “lasted for as long as the patient took a daily pill”, the effect on sweating entry is on record as “reduction in sweating” and the “onset of reduction in sweating after beginning taking the drug” value worked out at 72 h.

The record behind these values is patent US10010494B2, “Methods for the treatment of hyperhidrosis” (priority 2005, dated 2018).
